Measurements as given in ChEMBL document CHEMBL4706499, “PTG-0861: A novel HDAC6-selective inhibitor as a therapeutic strategy in acute myeloid leukaemia” (Eur J Med Chem, 2020).

Columns and labels:
[1] = Cmax in CD1 mouse at 20 mg/kg, ip measured after 24 hrs by LC/MS/MS method; type: ADME, organism-based; design: route intraperitoneal, dose 20 mg/kg, time 24 hrs; conditions: in vivo
MV4-11 [2] = assay: Induction of apoptosis in human MV4-11 cells assessed as viable cells at 0.25 microM measured after 18 hrs by Annexin V/Propidium iodide stain based Flow cytometry assay (reference value: 53.27%); type: functional; conditions: read-out: Activity
Histone deacetylase 2 = Histone deacetylase 2 (Homo sapiens, UniProt Q92769); assay: Inhibition of recombinant full length human HDAC2 expressed in SF9 baculovirus using FAM- labelled acetylated peptide as substrate measured by Electrophoretic mobility shift assay
Histone deacetylase 2, sequence (Q92769 whole entry): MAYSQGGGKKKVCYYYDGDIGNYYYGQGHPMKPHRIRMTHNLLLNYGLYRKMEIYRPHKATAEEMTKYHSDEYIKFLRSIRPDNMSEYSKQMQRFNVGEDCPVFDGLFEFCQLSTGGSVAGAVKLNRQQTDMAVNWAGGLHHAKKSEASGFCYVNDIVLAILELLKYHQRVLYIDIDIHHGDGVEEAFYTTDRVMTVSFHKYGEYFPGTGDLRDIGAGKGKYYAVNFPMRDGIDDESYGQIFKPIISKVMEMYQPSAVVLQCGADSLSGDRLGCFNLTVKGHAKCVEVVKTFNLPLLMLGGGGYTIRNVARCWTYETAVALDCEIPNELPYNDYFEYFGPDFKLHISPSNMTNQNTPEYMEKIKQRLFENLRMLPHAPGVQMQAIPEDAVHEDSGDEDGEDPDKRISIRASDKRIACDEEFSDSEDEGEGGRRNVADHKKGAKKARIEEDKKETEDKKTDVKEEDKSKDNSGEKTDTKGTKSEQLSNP

[3] = Toxicity in CD-1 mouse assessed as changes in body weight at 20 mg/kg, po measured after 5 days; type: organism-based; conditions: in vivo, 120 h, time 5 day
MV4-11 [4] = assay: Induction of apoptosis in human MV4-11 cells assessed as early apoptotic cells at 0.5 microM measured after 18 hrs by Annexin V/Propidium iodide stain based Flow cytometry assay (reference value: 1.7%); type: functional
Fibroblast = assay: Cytotoxicity against human fibroblasts measured after 72 hrs by spectrophotometer method; type: cell-based

- Cmax [1]: 0.526 µg/mL
- IC50 (Histone deacetylase 2): > 1 µM
Compound: O=C(NO)c1ccc(CNC(=O)c2c(F)c(F)c(F)c(F)c2F)cc1
- viability at 0.25 µM (MV4-11 [2]): 52.3%
- Activity [3]: Non-Toxic
- Activity (MV4-11 [4]): 2.87%
- IC50 (Fibroblast): 11.5 µM
